Experimental findings from ChEMBL document CHEMBL4673385, “Discovery of Potent Inhibitors of Streptococcus mutans Biofilm with Antivirulence Activity” (ACS Med Chem Lett, 2021) are described below.

SMILES strings stand for the structures. Activity calls are given as the source filed them. Unless noted, the calls are words filed in the database; no cut-off is given here.

Experiment [1] deals with T1, Glucosyltransferase-S (Streptococcus mutans serotype c (strain ATCC 700610 / UA159)) (UniProt P49331).
T1 sequence (whole entry): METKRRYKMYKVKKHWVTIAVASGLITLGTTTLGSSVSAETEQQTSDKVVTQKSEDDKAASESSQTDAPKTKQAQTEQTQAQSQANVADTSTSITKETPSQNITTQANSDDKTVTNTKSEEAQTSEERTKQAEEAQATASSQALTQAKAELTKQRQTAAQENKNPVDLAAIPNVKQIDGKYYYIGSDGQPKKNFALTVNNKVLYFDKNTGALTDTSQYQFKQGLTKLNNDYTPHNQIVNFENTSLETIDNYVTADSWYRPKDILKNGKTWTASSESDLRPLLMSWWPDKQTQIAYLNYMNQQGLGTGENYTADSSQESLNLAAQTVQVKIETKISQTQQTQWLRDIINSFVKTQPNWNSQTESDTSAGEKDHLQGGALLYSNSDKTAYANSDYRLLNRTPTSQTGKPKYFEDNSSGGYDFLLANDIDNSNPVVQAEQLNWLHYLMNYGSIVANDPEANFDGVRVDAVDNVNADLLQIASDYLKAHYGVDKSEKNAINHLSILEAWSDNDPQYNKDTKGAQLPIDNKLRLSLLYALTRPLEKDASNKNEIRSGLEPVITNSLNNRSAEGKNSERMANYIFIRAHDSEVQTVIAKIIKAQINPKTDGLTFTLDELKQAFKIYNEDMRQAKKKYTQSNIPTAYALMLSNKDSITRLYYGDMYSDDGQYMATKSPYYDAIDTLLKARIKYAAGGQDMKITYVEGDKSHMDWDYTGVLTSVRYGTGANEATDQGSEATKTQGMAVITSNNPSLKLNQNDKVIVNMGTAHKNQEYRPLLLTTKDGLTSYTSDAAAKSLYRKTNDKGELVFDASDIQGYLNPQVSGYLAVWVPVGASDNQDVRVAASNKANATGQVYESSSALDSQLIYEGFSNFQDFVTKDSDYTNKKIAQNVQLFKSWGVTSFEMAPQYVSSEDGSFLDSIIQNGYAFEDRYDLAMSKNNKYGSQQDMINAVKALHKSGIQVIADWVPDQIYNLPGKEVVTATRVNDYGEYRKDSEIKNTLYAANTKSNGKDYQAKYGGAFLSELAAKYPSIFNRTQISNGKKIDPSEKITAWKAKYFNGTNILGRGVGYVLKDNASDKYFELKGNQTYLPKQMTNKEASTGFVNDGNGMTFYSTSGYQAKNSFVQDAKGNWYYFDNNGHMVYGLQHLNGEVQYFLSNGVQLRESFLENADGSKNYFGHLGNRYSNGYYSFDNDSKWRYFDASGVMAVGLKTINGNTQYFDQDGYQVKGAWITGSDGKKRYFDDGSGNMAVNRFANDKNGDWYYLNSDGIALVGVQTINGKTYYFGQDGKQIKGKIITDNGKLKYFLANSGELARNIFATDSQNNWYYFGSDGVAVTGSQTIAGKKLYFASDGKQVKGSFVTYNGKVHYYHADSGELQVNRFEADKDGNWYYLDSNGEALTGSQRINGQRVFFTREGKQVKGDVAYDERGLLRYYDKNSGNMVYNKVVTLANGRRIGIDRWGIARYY
Put plainly: Inhibition of GtfD in Streptococcus mutans UA159 assessed as reduction in glucans level by Coomassie blue dye based SDS-PAGE analysis.

Experiment [2] has as its target T2, Glucosyltransferase-I (Streptococcus mutans serotype c (strain ATCC 700610 / UA159)) (UniProt P08987).
T2 sequence (whole entry): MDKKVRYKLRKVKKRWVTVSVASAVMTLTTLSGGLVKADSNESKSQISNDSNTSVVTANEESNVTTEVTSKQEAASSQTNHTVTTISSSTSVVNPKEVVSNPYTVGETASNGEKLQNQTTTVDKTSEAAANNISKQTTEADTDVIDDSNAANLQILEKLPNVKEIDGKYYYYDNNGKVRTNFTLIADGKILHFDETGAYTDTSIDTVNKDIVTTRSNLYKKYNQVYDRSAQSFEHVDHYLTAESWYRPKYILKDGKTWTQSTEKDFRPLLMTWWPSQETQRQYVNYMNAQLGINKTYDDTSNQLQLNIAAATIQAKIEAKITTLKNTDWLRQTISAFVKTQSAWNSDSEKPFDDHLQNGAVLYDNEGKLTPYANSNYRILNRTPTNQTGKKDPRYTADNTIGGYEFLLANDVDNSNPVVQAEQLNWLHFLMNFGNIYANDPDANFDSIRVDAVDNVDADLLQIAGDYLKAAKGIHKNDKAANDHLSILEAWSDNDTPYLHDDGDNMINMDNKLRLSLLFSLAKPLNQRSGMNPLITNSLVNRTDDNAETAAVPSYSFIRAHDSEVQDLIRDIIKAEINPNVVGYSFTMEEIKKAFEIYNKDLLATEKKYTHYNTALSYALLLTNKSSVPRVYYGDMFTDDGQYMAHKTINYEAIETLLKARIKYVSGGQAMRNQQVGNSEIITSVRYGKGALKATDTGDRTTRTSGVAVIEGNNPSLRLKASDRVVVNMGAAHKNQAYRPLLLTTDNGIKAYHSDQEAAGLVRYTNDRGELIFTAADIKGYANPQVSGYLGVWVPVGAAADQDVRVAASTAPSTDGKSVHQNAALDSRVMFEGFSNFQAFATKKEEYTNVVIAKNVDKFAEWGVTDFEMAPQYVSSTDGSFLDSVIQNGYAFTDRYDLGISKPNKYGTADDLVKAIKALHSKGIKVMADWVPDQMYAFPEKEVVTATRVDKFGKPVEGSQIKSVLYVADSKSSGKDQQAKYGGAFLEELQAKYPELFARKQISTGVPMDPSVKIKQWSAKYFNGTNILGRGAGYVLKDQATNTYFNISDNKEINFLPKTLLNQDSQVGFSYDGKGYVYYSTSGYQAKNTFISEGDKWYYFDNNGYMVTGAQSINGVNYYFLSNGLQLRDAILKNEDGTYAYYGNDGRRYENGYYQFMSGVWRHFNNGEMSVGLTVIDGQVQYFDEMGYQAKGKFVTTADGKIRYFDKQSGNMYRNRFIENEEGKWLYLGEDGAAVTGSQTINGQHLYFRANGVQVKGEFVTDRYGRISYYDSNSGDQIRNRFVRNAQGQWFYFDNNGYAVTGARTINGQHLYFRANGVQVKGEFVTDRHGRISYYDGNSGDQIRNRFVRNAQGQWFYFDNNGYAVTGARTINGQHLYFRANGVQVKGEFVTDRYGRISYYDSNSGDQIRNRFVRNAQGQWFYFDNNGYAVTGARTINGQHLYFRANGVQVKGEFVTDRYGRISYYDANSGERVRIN
The experiment can be described thus: Inhibition of GtfB in Streptococcus mutans UA159 assessed as reduction in glucans level by Coomassie blue dye based SDS-PAGE analysis.

For experiment [3], the system named is Streptococcus mutans. The experiment can be described thus: Bactericidal activity against Streptococcus mutans UA159 assessed as reduction in bacterial growth at 100 uM after 24 hrs. The format is functional, organism-based.
Experiment [4] deals with Streptococcus mutans. Put plainly: Antibiofilm activity against Streptococcus mutans UA159 assessed as inhibition of biofilm formation by serial dilution method. The format is functional, organism-based. As to conditions: Streptococcus mutans, UA159; read-out: IC50.

What is called IC50 is the concentration at which inhibition is half-maximal. In the case of `CC(C)(C)OC(=O)NCc1ccccc1NC(=O)c1cnc2ccccc2c1`, the inhibition result in experiment [1] and in experiment [2] was “Active” in each case. Further, the outcome in the experiment with Streptococcus mutans [3] was inactive. The IC50 in the experiment on Streptococcus mutans [4] is 52.8 µM.
Consider `NC(=O)c1ccccc1NC(=O)c1cnc2ccccc2c1`, for which the inhibition entry in experiment [1] and in experiment [2] was “Active” each time. Moreover, in the experiment on Streptococcus mutans [3], the result was inactive. Further, the IC50 in the experiment on Streptococcus mutans [4] turned out to be 15.3 µM.
As for `COC(=O)c1ccc(NC(=O)c2cc3cc([N+](=O)[O-])ccc3s2)cc1`, the inhibition result in experiment [1] and in experiment [2] was “Active” in each case. Further, the result in the experiment with Streptococcus mutans [3] was inactive. Further, the IC50 with Streptococcus mutans [4] turned out to be 9.6 µM.
For `NC(=O)c1ccccc1NC(=O)c1cc2cc([N+](=O)[O-])ccc2s1`, the inhibition result in experiment [1] and in experiment [2] was “Active” each time. Moreover, the outcome in the experiment on Streptococcus mutans [3] was inactive. Further, the IC50 in the experiment on Streptococcus mutans [4] is 16.7 µM.
Take `O=C(c1ccc(F)cc1)c1ccc(-c2[nH]c(-c3ccc([N+](=O)[O-])cc3O)nc2-c2ccccc2)cc1`: the inhibition result in experiment [1] and in experiment [2] was “Active” each time.
Regarding `CC(C)(C)OC(=O)NCc1ccccc1NC(=O)c1cc2cc([N+](=O)[O-])ccc2s1`, the inhibition result in experiment [1] and in experiment [2] was “Active” each time. Moreover, the result with Streptococcus mutans [3] was inactive. In addition, in the experiment on Streptococcus mutans [4], the IC50 came to 51.5 µM.
As to `NC(=O)c1cccc(NC(=O)c2cnc3ccccc3c2)c1`, the inhibition result in experiment [1] and in experiment [2] was “Active” each time. In addition, the result in the experiment on Streptococcus mutans [3] was inactive. The IC50 in the experiment with Streptococcus mutans [4] was determined as 8.6 µM.
